From patent US7462634B2, “N-(pyridin-2-yl)-sulfonamide derivatives” (Agouron Pharmaceuticals, Inc., priority 2005, dated 2008) come the findings set out here.

The term inhibition denotes the drop in the measured response relative to a control, in per cent. In general, EC50 refers to the midpoint of the concentration-response curve.

The target of experiment [1] is T1, human 11βHSD1 (Homo sapiens, UniProt P28845). The experiment in a line: 11βHSD1 enzymatic assay (Kiapp determination). The format is biochemical. How it is done:
The 11βHSD1 assay was performed in a 100 mM Triethanolamine buffer pH 8.0, containing 200 mM NaCl, 0.02% n-dodecyl β-D-maltoside, 5% glycerol, 5 mM β-mercaptoethanol. A typical reaction for the determination of Kiapp values was carried at room temperature in a Corning® u-bottom 96-well plate and is described as follows: 11βHSD1 enzyme (5 nM, final concentration) was pre-incubated in the presence of the inhibitor and NADPH (500 μM, final concentration) for at least 30 minutes in the assay buffer. When pre-incubation was completed, the reaction was initiated by adding the regenerating system (2 mM Glucose-6-Phosphate, 1 U/mL Glucose-6-Phosphate dehydrogenase, and 6 mM MgCl2, all the concentration reported are final in the assay buffer), and 3H-cortisone (200 nM, final concentration). After 60 minutes, 60 μL of the assay mixture was transferred to a second 96-well plate and mixed with an equal volume of dimethylsulfoxide to stop the reaction. A 15 μL aliquot from the reaction mixture was loaded into a C-18 column (Polaris C18-A, 50×4.6 mm, 5μ, 180 Angstrom from Varian) connected to an automated High-throughput Liquid Chromatography instrument developed by Cohesive Technologies, commercially available from Franklin, Mass. USA, with a β-RAM model 3 Radio-HPLC detector from IN/US, commercially available from Tampa, Fla. USA. The substrate and product peaks were separated by using an isocratic mixture of 43:57 methanol to water (v/v) at a flow rate of 1.0 mL/min.
The initial reaction velocities were measured by stopping the reaction at 60 min and by measuring the area of product formation in the absence and the presence of various concentrations of inhibitors. The Kiapp values were determined using the equation for tight-binding inhibitor developed by Morrison, J F. (Morrison J F. Biochim Biophys Acta. 1969; 185: 269-86):
Where vi, and vo are the rates of cortisol formation in the presence and in the absence of inhibitor, respectively, I is the inhibitor concentration and E is the 11βHSD1 concentration in the assay buffer. All the concentrations reported are the final concentrations in the assay buffer
See also Morrison, J. F., “Kinetics of the reversible inhibition of enzyme-catalysed reactions by tight-binding inhibitors,” Biochim Biophys Acta., 1969; 185: 269-86.

Experiment [2] deals with T1, human 11βHSD1. The experiment in a line: 11βHSD1 enzymatic assay, percentage of inhibition. The format is biochemical. The note with it: inhibitor at 0.1 uM. How it is done: Percentage of inhibition was determined in a 100 mM Triethanolamine buffer, pH 8.0, 200 mM NaCl, 0.02% n-dodecyl β-D-maltoside and 5mM β-ME. A typical reaction was carried on a Corning® u-bottom 96-well plate and is described as follows: 11βHSD1 enzyme (5 nM, final concentration) was pre-incubated in the presence of the inhibitor and NADPH (500 μM, final concentration) for at least 30 minutes in the assay buffer. When pre-incubation was completed, the reaction was initiated by adding the regenerating system (2 mM Glucose-6-Phosphate, 1 U/mL Glucose-6-Phosphate dehydrogenase, and 6 mM MgCl2, all the concentration reported are final in the assay buffer), and 3H-cortisone (200 nM, final concentration). After 60 minutes, 60 μL of the assay mixture was transferred to a second 96-well plate and mixed with an equal volume of dimethylsulfoxide to stop the reaction. A 15 μL aliquot from the reaction mixture was loaded into a C-18 column (Polaris C18-A, 50×4.6 mm, 5μ, 180 Angstrom from Varian) connected to an automated High-throughput Liquid Chromatography instrument developed by Cohesive Technologies commercially available from Franklin, Mass., with a β-RAM model 3 Radio-HPLC detector from IN/US commercially available from Tampa, Fla. The substrate and product peaks were separated by using an isocratic mixture of 43:57 methanol to water (v/v) at a flow rate of 1.0 mL/min.
Percent Inhibition was calculated based on the following equation: (100−(3H-Cortisol peak area with inhibitor/3Hcortisol peak area without inhibitor)×100).
[1,2-3H]-cortisone is commercially available from American Radiolabeled Chemicals Inc. of St. Louis, Mo. USA. NADPH while Glucose-6-Phosphate and Glucose-6-Phosphate dehydrogenase was purchased from Sigma®.

The target in experiment [3] is T1, human 11βHSD1. The experiment in a line: Human Fa2N-4 immortalized cell-based assay (cortisol accumulation). The note with it: Fa2N-4 human hepatocyte-derived cells, cortisol EIA, 5 μM cortisone, overnight. How it is done: Human Fa2N-4 Immortalized Cell-Based Assay
Fa2N4 is a cell line derived from human hepatocytes, developed by MultiCell Technologies, Inc. (U.S. Pat. No. 6,107,043), and commercialized by XenoTech LLC via an exclusive license. […] Inhibition of 11βHSD1 enzyme activity was assessed in this cell model by measuring decrease in cortisol (enzyme product) accumulation in cultures co-treated with cortisone (enzyme substrate) and the potential enzyme inhibitor. Cortisol signal was quantitatively determined in the supernatant of treated cells by means of the Correlate-Enzyme Immunoassay (EIA)™Cortisol kit (Assay Designs, Inc.).
Cells were plated in 96 Well Flat Bottom Collagen-coated Microplates, 20,000 cell/well, in 200 μl/well MFE™ (Multi-functional Enhancing—XenoTech, LLC) medium, containing antibiotics (penicillin-streptomycin) and supplemented with 10% of heat inactivated fetal bovine serum. Plates were incubated at 37° C., 5% CO2 overnight. The following day, and before addition of cortisone and inhibitor compounds, medium was changed to Hepatocyte Basal Medium (HBM—Cambrex Bio ScienceWalkersVille, Inc) containing only antibiotics. Thirty-minute pre-incubation with various concentrations of inhibitor compounds (20 μL/well), was followed by addition of 5 μM Cortisone (20 μL/well), and cells were incubated at 37° C., 5% CO2 overnight. At the end of the incubation, 100 μL of each supernatant was analyzed for cortisol content using the Cortisol-EIA kit from Assay Designs, following manufacturers' instructions. Plates were read on a plate reader (Spectra MAX PLUS—Molecular Devices Corporation) at 405 nm, with correction at 580 nm. All results were compared to 100% activation control, i.e. cells treated only with cortisone (no inhibitors added).

The target of experiment [4] is T1, human 11βHSD1. Put plainly: HEK293-11βHSD1/GRE-Luciferase cell-based assay. The note with it: HEK293 cells over-expressing human 11βHSD1, GRE-luciferase readout, cortisone substrate, 6 h; read-out: HEK EC50. Details: expressed in transfected cells. How it is done:
HEK293-11 βHSD1/GRE-Luciferase Cell-Based Assay
Inhibition of 11βHSD1 enzyme activity was also measured using human kidney HEK293 stable transfected cells, over-expressing human 11βHSD1, and a reporter plasmid containing DNA sequences for specific recognition of glucocorticoid-activated glucocorticoid receptors (GRE), using a method similar to that described in Bujalska et al, Human 11β-hydroxysteroid dehydrogenase: Studies on the stably transfected isoforms and localization of the type 2 isozyme within renal tissue, Steroids, 62(1), […], 77-82 . These sequences were fused to a luciferase reporter gene (Luc) allowing for quantification of 11 βHSD1 enzyme modulation. […] Cortisol (but not cortisone) binds and activates glucocorticoid receptors (GR), which will result in activation of luciferase and production of light (assay readout). A compound with the capability of inhibiting 11βHSD1 will reduce the luciferase signal, as compared to the cortisone control (enzyme substrate).
Cells were plated in 384 Well Flat Bottom White Polystyrene TC-Treated Microplates, at 20,000 cell/well at a volume of 40 μl/well, in serum-free DME Medium. Plates were incubated at 37° C., 5% CO2 overnight before addition of inhibitor compounds. Different concentrations of inhibitor compounds were added in 10% (v/v) dimethylsulfoxide (5 μL/well), followed by addition of 3 μM Cortisone (5 μL/well), and cells were incubated at 37° C. (5% CO2) for six hours. At the end of the incubation, 25 μL/well SteadyLite HTS were added and plates were incubated 10min at room temp on shaker. Plates were then read on Top Count using 384HSD1 program. The concentration of inhibitor compound causing 50% inhibition of light signal was determined via a custom made Excel Macro. All results were compared to 100% activation control, i.e. cells treated only with cortisone (no inhibitors added).

T1 sequence (P28845 whole entry): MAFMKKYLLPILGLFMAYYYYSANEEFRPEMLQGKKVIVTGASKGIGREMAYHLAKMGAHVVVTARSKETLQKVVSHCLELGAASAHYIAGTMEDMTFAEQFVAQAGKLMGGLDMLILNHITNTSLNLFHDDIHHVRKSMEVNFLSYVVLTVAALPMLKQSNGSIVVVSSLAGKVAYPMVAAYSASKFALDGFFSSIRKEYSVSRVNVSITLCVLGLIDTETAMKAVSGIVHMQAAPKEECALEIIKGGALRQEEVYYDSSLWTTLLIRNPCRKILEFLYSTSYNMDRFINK

For the compound `Cc1cc(-c2ccc(C#N)cc2)ccc1S(=O)(=O)Nc1cccc(C(C)O)n1` (single isomer, unassigned; (+)) [4(+), (+)4′-Cyano-N-[6-(1-hydroxyethyl)pyridin-2-yl]-3-methylbiphenyl4-sulfonamide], the Ki at human 11βHSD1 [1] stood at 0.0027 µM. The compound further registered an inhibition at 0.1 µM on human 11βHSD1 [2] of 100%. In addition, the EC50 on human 11βHSD1 [3] came out at 0.00786 µM; at human 11βHSD1 [4] it was 0.0231 µM.
On human 11βHSD1 [1], `N#Cc1ccc(-c2ccc(S(=O)(=O)Nc3cccc(CO)n3)cc2)cc1` [Example 9, 4′-cyano-N-[6-(hydroxymethyl)pyridin-2-yl]biphenyl-4-sulfonamide] yielded a Ki of 0.0028 µM. For the same compound, at 0.1 µM the inhibition against human 11βHSD1 [2] was 100%. Moreover, the EC50 at human 11βHSD1 [3] worked out at 0.0218 µM; on human 11βHSD1 [4], 0.059 µM.
In turn, `CC(O)c1cccc(NS(=O)(=O)c2ccc(-c3ccc(C#N)cc3)cc2)n1` (single isomer, unassigned; (+)) [2(+), (+)-4′-Cyano-N-[6-(1-hydroxyethyl)pyridin-2-yl]biphenyl4-sulfonamide] came in with a Ki at human 11βHSD1 [1] of 0.019 µM. Besides, the “% inh @ 0.1 uM” value at human 11βHSD1 [2] was 85%. For the same compound, the EC50 on human 11βHSD1 [3] worked out at 0.056 µM; on human 11βHSD1 [4] it was 0.16 µM.
As to `CCC(O)c1cccc(NS(=O)(=O)c2ccc(-c3ccc(C#N)cc3)cc2)n1` (single isomer, unassigned; (-)) [3(−), (−)4′-cyano-N-[6-(1-hydroxypropyl)pyridin-2-yl]biphenyl-4-sulfonamide], on human 11βHSD1 [2], the “% inh @ 0.1 uM” value turned out to be 59%.
Turning to `Cc1cc(-c2ccc(C#N)cc2)ccc1S(=O)(=O)Nc1cccc(C(C)O)n1` (single isomer, unassigned; (-)) [4(−), (−)4′-Cyano-N-[6-(1-hydroxyethyl)pyridin-2-yl]-3-methylbiphenyl4-sulfonamide], at human 11βHSD1 [2], testing at 0.1 µM gave an inhibition of 84%.
At human 11βHSD1 [1], `CCC(O)c1cccc(NS(=O)(=O)c2ccc(-c3ccc(C#N)cc3)cc2)n1` (single isomer, unassigned; (+)) [3(+), (+)-4′-cyano-N-[6-(1-hydroxypropyl)pyridin-2-yl]biphenyl-4-sulfonamide] yielded a Ki of 0.00519 µM. Besides, at human 11βHSD1 [2], the “% inh @ 0.1 uM” value is 97.9%. The EC50 at human 11βHSD1 [3] is 0.0116 µM; on human 11βHSD1 [4], 0.0507 µM.
Regarding `N#Cc1ccc(-c2ccc(S(=O)(=O)Nc3cccc(CCO)n3)cc2)cc1` [Comparative Example A, reference compound], the 50% effective concentration (EC50) on human 11βHSD1 [3] was 0.0777 µM; on human 11βHSD1 [4], 0.423 µM.
`CCCCOc1ccc(S(=O)(=O)Nc2cccc(N)n2)cc1` [Example 7, N-(6-aminopyridin-2-yl)-4-butoxybenzenesulfonamide] showed a Ki on human 11βHSD1 [1] of 0.0038 µM. The same compound returned an inhibition at 0.1 µM against human 11βHSD1 [2] of 100%.
In the case of `CC(O)c1cccc(NS(=O)(=O)c2ccc(-c3ccc(C#N)cc3)cc2)n1` (single isomer, unassigned; (-)) [2(−), (−)4′-Cyano-N-[6-(1-hydroxyethyl)pyridin-2-yl]biphenyl4-sulfonamide], the “% inh @ 0.1 uM” value at human 11βHSD1 [2] is 53%.
At human 11βHSD1 [1], `Cc1cc(N)nc(NS(=O)(=O)c2cc(C)c(Cl)cc2F)c1` [Example 6, N-(6-amino-4-methylpyridin-2-yl)-4-chloro-2-fluoro-5-methylbenzenesulfonamide] displayed a Ki of 0.0028 µM. For the same compound, on human 11βHSD1 [2], the inhibition at 0.1 µM came to 98%.
In the case of `Cc1cc(N)nc(NS(=O)(=O)c2sc(-c3ccc(C#N)cc3)nc2C)c1` [Example 1, N-(6-amino-4-methylpyridin-2-yl)-2-(4-cyanophenyl)-4-methyl-1,3-thiazole-5-sulfonamide], the Ki at human 11βHSD1 [1] is 0.0018 µM. On human 11βHSD1 [2], 0.1 µM produced 100% inhibition.
On human 11βHSD1 [1], `CCNc1cccc(NS(=O)(=O)c2ccc(-c3ccc(C#N)cc3)cc2)n1` [Example 8, 4′-cyano-N-[6-(ethylamino)pyridin-2-yl]biphenyl4-sulfonamide] registered a Ki of 0.0048 µM. The compound also yielded an inhibition at 0.1 µM on human 11βHSD1 [2] of 88%.
With `Cc1cc(S(=O)(=O)Nc2cccc(N)n2)c(F)cc1Cl` [Example 5, N-(6-aminopyridin-2-yl)-4-chloro-2-fluoro-5-methylbenzenesulfonamide], the Ki at human 11βHSD1 [1] is 0.0097 µM. On human 11βHSD1 [2], this compound yielded an inhibition at 0.1 µM of 93%.
